Test results from patent US8637550B2, “Heteroaryl diamide compounds useful as MMP-13 inhibitors” (Boehringer Ingelheim International GmbH, priority 2008, dated 2014).
pIC50: −log10 of the molar value.

target: MMP-13 (Homo sapiens, UniProt P45452); assay: EnzoLyte 520 Generic MMP Assay Kit, 5-FAM/QXL520 FRET peptide substrate; type: biochemical
Source text: The EnzoLyte™ 520 Generic MMP Assay Kit (AnaSpec Inc.) can detect the activity of several MMPs including MMP-1, 2, 3, 7, 8, 9, 13, and 14. This kit uses a 5-FAM/QXL™520 fluorescence resonance energy transfer (FRET) peptide as an MMP substrate.

Q: With `CNC(=O)[C@@H](NC(=O)c1ccc(-c2ccc(OCc3ccn(C)n3)cn2)o1)C1CCCCC1` [N-[(1S)-1-cyclohexyl-2-(methylamino)-2-oxoethyl]-5-{5-[(1-methyl-1H-pyrazol-3-yl)methoxy]pyridin-2-yl}furan-2-carboxamide] as the compound, how does the pIC50 read?
A: 7.60

Q: How did the pIC50 turn out when `CNC(=O)[C@@H](NC(=O)c1ccc(-c2ccc(NC(=O)c3cn4cc(C(N)=O)ccc4n3)cc2)o1)C1CCCCC1` [Imidazo[1,2-a]pyridine-2,6-dicarboxylic acid 6-amide 2-[(4-{5-[((S)-cyclohexyl-methylcarbamoyl-melhyl)-carbamoyl]-furan-2-yl}-phenyl)-amide]] was run?
A: 7.62

Q: How did the pIC50 turn out when `CNC(=O)[C@@H](NC(=O)c1ccc(-c2ccc(OCc3cccnc3)cn2)o1)C1CCCCC1` [N-[(1S)-1-cyclohexyl-2-(methylamino)-2-oxoethyl]-5-[5-(pyridin-3-ylmethoxy)pyridin-2-yl]furan-2-carboxamide] was run?
A: 8.70

Q: With `CNC(=O)[C@@H](NC(=O)c1ccc(-c2cccc(CNC(=O)c3cccc(F)n3)c2)o1)C(C)C` [6-Fluoro-N-[3-(5-{[(1S)-2-methyl-1-(methylcarbamoyl)propyl]carbamoyl}-2-furyl)benzyl]pyridine-2-carboxamide] as the compound, how does the pIC50 read?
A: 8.70

Q: `CNC(=O)[C@@H](NC(=O)c1ccc(-c2cccc(CNC(=O)c3ccccc3)c2)o1)C(C)C` [5-[3-(Benzoylamino-methyl)-phenyl]-furan-2-carboxylic acid ((S)-2-methyl-1-methylcarbamoyl-propyl)-amide] was tested. Which pIC50 did it give?
A: 6.69

Q: With `CNC(=O)[C@@H](NC(=O)c1ccc(-c2ccc(-c3ccc4[nH]ccc4c3)cn2)o1)C(C)C` [5-[5-(1H-Indol-5-yl)-pyridin-2-yl]-furan-2-carboxylic acid ((S)-2-methyl-1-methylcarbamoyl-propyl)-amide] as the compound, how does the pIC50 read?
A: 6.59

Q: How did the pIC50 turn out when `CNC(=O)[C@@H](NC(=O)c1ccc(-c2cccc(CNC(=O)c3nc(C(F)(F)F)cs3)c2)o1)C(C)C` [4-Trifluoromethyl-thiazole-2-carboxylic acid 3-[5-((S)-2-methyl-1-methylcarbamoyl-propylcarbamoyl)-furan-2-yl]-benzylamide] was run?
A: 8.22

Q: `CNC(=O)[C@@H](NC(=O)c1ccc(-c2ccc(O[C@H](C)c3ccncc3)cn2)o1)C1CCCCC1` [N-[(1S)-1-cyclohexyl-2-(methylamino)-2-oxoethyl]-5-{5-[(1R)-1-(pyridin-4-yl)ethoxy]pyridin-2-yl}furan-2-carboxamide] was tested. Which pIC50 did it give?
A: 8.52

Q: How did the pIC50 turn out when `CNC(=O)[C@@H](NC(=O)c1ccc(-c2cccc(CNC(=O)NC(C)C)c2)o1)C1CCCCC1` [N-[(1S)-1-cyclohexyl-2-(methylamino)-2-oxoethyl]-5-(3-{[(propan-2-ylcarbamoyl)amino]methyl}phenyl)furan-2-carboxamide] was run?
A: 6.69

Q: `CNC(=O)[C@@H](NC(=O)c1ccc(-c2ccc(NC(=O)c3cc4ccccc4o3)cn2)o1)C1CCCCC1` [N-[6-(5-{[(1S)-1-cyclohexyl-2-(methylamino)-2-oxoethyl]carbamoyl}furan-2-yl)pyridin-3-yl]-1-benzofuran-2-carboxamide] was tested. Which pIC50 did it give?
A: 7.52

Q: `CNC(=O)[C@@H](NC(=O)c1ccc(-c2ccc(OCc3ccn[nH]3)cn2)o1)C1CCCCC1` [N-[(1S)-1-cyclohexyl-2-(methylamino)-2-oxoethyl]-5-[5-(1H-pyrazol-5-ylmethoxy)pyridin-2-yl]furan-2-carboxamide] was tested. Which pIC50 did it give?
A: 8.22

Q: How did the pIC50 turn out when `C[C@@H](CO)NC(=O)[C@@H](NC(=O)c1ccc(-c2ccc(C#N)cc2)o1)C1CCCCC1` [5-(4-cyanophenyl)-N-[(1S)-1-cyclohexyl-2-{[(2S)-1-hydroxypropan-2-yl]amino}-2-oxoethyl]furan-2-carboxamide] was run?
A: 6.71

Q: With `CNC(=O)[C@@H](NC(=O)c1ccc(-c2ccc(OCc3ccccc3)cn2)o1)C(C)C` [5-(5-Benzyloxy-pyridin-2-yl)-furan-2-carboxylic acid ((S)-2-methyl-1-methylcarbamoyl-propyl)-amide] as the compound, how does the pIC50 read?
A: 7.74

Q: `CNC(=O)[C@@H](NC(=O)c1ccc(-c2ccc(OCc3ccccn3)cn2)o1)C1CCCCC1` [N-[(1S)-1-cyclohexyl-2-(methylamino)-2-oxoethyl]-5-[5-(pyridin-2-ylmethoxy)pyridin-2-yl]furan-2-carboxamide] was tested. Which pIC50 did it give?
A: 7.68

Q: How did the pIC50 turn out when `CNC(=O)[C@@H](NC(=O)c1ccc(-c2cccc(CNC(=O)C3CCCCC3)c2)o1)C(C)C` [5-{3-[(Cyclohexanecarbonyl-amino)-methyl]-phenyl}-furan-2-carboxylic acid ((S)-2-methyl-1-methylcarbamoyl-propyl)-amide] was run?
A: 6.78

Q: How did the pIC50 turn out when `CNC(=O)[C@@H](NC(=O)c1ccc(-c2cccc(CNC(=O)c3nc4ccccc4[nH]3)c2)o1)C(C)C` [N-[3-(5-{[(1S)-2-methyl-1-(methylcarbamoyl)propyl]carbamoyl}-2-furyl)benzyl]-1H-benzimidazole-2-carboxamide] was run?
A: 7.48

Q: `CC(O)CNC(=O)[C@@H](NC(=O)c1ccc(-c2ccc(C#N)cc2)o1)C1CCCCC1` (stereo partly drawn) [5-(4-cyanophenyl)-N-{(1S)-1-cyclohexyl-2-[(2-hydroxypropyl)amino]-2-oxoethyl}furan-2-carboxamide] was tested. Which pIC50 did it give?
A: 6.77

Q: With `CNC(=O)[C@@H](NC(=O)c1ccc(-c2cccc(CNC(=O)C3CCCNC3)c2)o1)C(C)C` (stereo partly drawn) [N-[3-(5-{[(1S)-2-methyl-1-(methylcarbamoyl)propyl]carbamoyl}-2-furyl)benzyl]piperidine-3-carboxamide] as the compound, how does the pIC50 read?
A: 6.37

Q: How did the pIC50 turn out when `CNC(=O)[C@@H](NC(=O)c1ccc(-c2cccc(CNC(=O)c3cc(C(F)(F)F)n(C)n3)c2)o1)C(C)C` [1-Methyl-5-trifluoromethyl-1H-pyrazole-3-carboxylic acid 3-[5-((S)-2-methyl-1-methylcarbamoyl-propylcarbamoyl)-furan-2-yl]-benzylamide] was run?
A: 7.41

Q: With `CNC(=O)[C@@H](NC(=O)c1ccc(-c2cccc(CNC(=O)C3CCCCO3)c2)o1)C(C)C` (stereo partly drawn) [N-[3-(5-{[(1S)-2-methyl-1-(methylcarbamoyl)propyl]carbamoyl}-2-furyl)benzyl]tetrahydro-2H-pyran-2-carboxamide] as the compound, how does the pIC50 read?
A: 7.00

Q: With `CNC(=O)[C@@H](NC(=O)c1csc(-c2ccc(Cl)cc2)n1)C1CCCCC1` [2-(4-Chlorophenyl)-N-[(1S)-1-cyclohexyl-2-(methylamino)-2-oxoethyl]-1,3-thiazole-4-carboxamide] as the compound, how does the pIC50 read?
A: 6.33

Q: With `CNC(=O)[C@@H](NC(=O)c1ccc(-c2ccc(OCc3cccc(C)c3)cn2)o1)C1CCCCC1` [N-[(1S)-1-cyclohexyl-2-(methylamino)-2-oxoethyl]-5-{5-[(3-methylbenzyl)oxy]pyridin-2-yl}furan-2-carboxamide] as the compound, how does the pIC50 read?
A: 7.44

Q: `CNC(=O)[C@@H](NC(=O)c1ccc(-c2cccc(CNC(=O)c3ccn(C)n3)c2)o1)C1CCCCC1` [N-[3-(5-{[(1S)-1-cyclohexyl-2-(methylamino)-2-oxoethyl]carbamoyl}furan-2-yl)benzyl]-1-methyl-1H-pyrazole-3-carboxamide] was tested. Which pIC50 did it give?
A: 7.62

Q: With `NC(=O)COCCNC(=O)[C@@H](NC(=O)c1ccc(-c2ccc(Cl)cc2)o1)C1CCCCC1` [N-[(1S)-2-{[2-(2-amino-2-oxoethoxy)ethyl]amino}-1-cyclohexyl-2-oxoethyl]-5-(4-chlorophenyl)furan-2-carboxamide] as the compound, how does the pIC50 read?
A: 6.49

Q: How did the pIC50 turn out when `CNC(=O)[C@@H](NC(=O)c1ccc(-c2ccc(OCc3cc(C)ccn3)cn2)o1)C1CCCCC1` [N-[(1S)-1-cyclohexyl-2-(methylamino)-2-oxoethyl]-5-{5-[(4-methylpyridin-2-yl)methoxy]pyridin-2-yl}furan-2-carboxamide] was run?
A: 8.10
